The supplement of paper PMC9663587

Legend:
[1] = compound: CC(=O)c1c(C)c2cnc(Nc3ccc(N4CCN(CCOCCOCCOCCNC(=O)COc5cccc6c5C(=O)N(C5CCC(=O)NC5=O)C6=O)CC4)cn3)nc2n(C2CCCC2)c1=O [BSJ-03-123]; assay: increase in dead-cell fraction, 72 h; higher = more death;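 further: breast cancer cell lines in 384-well plates, stained with Hoechst plus LIVE/DEAD far red dye and imaged, cells above an LDR intensity threshold counted dead, Hoechst-negative corpses included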
[2] = compound: CC(=O)c1c(C)c2cnc(Nc3ccc(N4CCNCC4)cn3)nc2n(C2CCCC2)c1=O; assay: as above
[3] = compound: CCN1CCN(Cc2ccc(Nc3ncc(F)c(-c4cc(F)c5nc(C)n(C(C)C)c5c4)n3)nc2)CC1; assay: as above
[4] = compound: CCOc1cc2ncc(C#N)c(Nc3ccc(OCc4ccccn4)c(Cl)c3)c2cc1NC(=O)/C=C/CN(C)C [Neratinib/HKI272]; assay: as above
[5] = compound: CCc1cnn2c(NCc3ccc[n+]([O-])c3)cc(N3CCCC[C@H]3CCO)nc12; assay: as above
[6] = compound: CN(C)C(=O)c1cc2cnc(Nc3ccc(N4CCNCC4)cn3)nc2n1C1CCCC1 [LEE011/Ribociclib]; assay: as above
[7] = compound: T1, CN(C)C/C=C/C(=O)Nc1ccc(C(=O)Nc2cccc(Nc3ncc(Cl)c(-c4c[nH]c5ccccc45)n3)c2)cc1 [THZ1]; assay: as above
[8] = compound: T2, CN1CC[C@H](c2c(O)cc(O)c3c(=O)cc(-c4ccccc4Cl)oc23)[C@H](O)C1 [Flavopiridol]; assay: as above
[9] = compound: CC(=O)c1c(C)c2cnc(Nc3ccc(N4CCNCC4)cn3)nc2n(C2CCCC2)c1=O; assay: GR value, 72 h; higher = faster growth (1 = untreated, <0 = killing);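 further: breast cancer and non-malignant breast epithelial lines, nine half-log doses, viable cells counted by Hoechst and LIVE/DEAD dye imaging versus time-zero plates and DMSO controls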
[10] = compound: CN(C)C/C=C/C(=O)Nc1ccc(C(=O)N2CCC[C@@H](Nc3ncc(Cl)c(-c4c[nH]c5ccccc45)n3)C2)cc1 [THZ531]; assay: as above
[11] = compound: T1, THZ1; assay: as above
[12] = compound: T2, Flavopiridol; assay: as above

HCC1187
increase in dead-cell fraction ([1]; 0.001 µM): 0.0005 | increase in dead-cell fraction ([1]; 0.003162 µM): -0.0076 | increase in dead-cell fraction ([1]; 0.01 µM): -0.0142 | increase in dead-cell fraction ([1]; 0.03162 µM): -0.0171 | increase in dead-cell fraction ([1]; 0.1 µM): 0.013 | increase in dead-cell fraction ([1]; 0.3162 µM): 0.0153 | increase in dead-cell fraction ([1]; 1 µM): 0.037 | increase in dead-cell fraction ([1]; 3.162 µM): 0.0469 | increase in dead-cell fraction ([1]; 10 µM): 0.323 | increase in dead-cell fraction ([2]; 0.0003162 µM): -0.0075 | increase in dead-cell fraction ([2]; 0.001 µM): 0.0038 | increase in dead-cell fraction ([2]; 0.003162 µM): 0.0189 | increase in dead-cell fraction ([2]; 0.01 µM): 0.0048 | increase in dead-cell fraction ([2]; 0.03162 µM): -0.0042 | increase in dead-cell fraction ([2]; 0.1 µM): -0.001 | increase in dead-cell fraction ([2]; 0.3162 µM): -0.0035 | increase in dead-cell fraction ([2]; 1 µM): 0.0145 | increase in dead-cell fraction ([2]; 3.162 µM): 0.0042 | increase in dead-cell fraction ([3]; 0.001 µM): 0.0028 | increase in dead-cell fraction ([3]; 0.003162 µM): 0.0037 | increase in dead-cell fraction ([3]; 0.01 µM): 0.0062 | increase in dead-cell fraction ([3]; 0.03162 µM): -0.0026 | increase in dead-cell fraction ([3]; 0.1 µM): 0.0042 | increase in dead-cell fraction ([3]; 0.3162 µM): 0.0069 | increase in dead-cell fraction ([3]; 1 µM): -0.0008 | increase in dead-cell fraction ([3]; 3.162 µM): 0.0149 | increase in dead-cell fraction ([3]; 10 µM): 0.0352 | increase in dead-cell fraction ([4]; 0.0003162 µM): -0.0132 | increase in dead-cell fraction ([4]; 0.001 µM): 0.0086 | increase in dead-cell fraction ([4]; 0.003162 µM): -0.0045 | increase in dead-cell fraction ([4]; 0.01 µM): -0.0058 | increase in dead-cell fraction ([4]; 0.03162 µM): -0.0052 | increase in dead-cell fraction ([4]; 0.1 µM): -0.002 | increase in dead-cell fraction ([4]; 0.3162 µM): 0.0006 | increase in dead-cell fraction ([4]; 1 µM): 0.0155 | increase in dead-cell fraction ([4]; 3.162 µM): 0.0076 | increase in dead-cell fraction ([5]; 0.0001 µM): 0.0033 | increase in dead-cell fraction ([5]; 0.0003162 µM): 0.0035 | increase in dead-cell fraction ([5]; 0.001 µM): 0.0039 | increase in dead-cell fraction ([5]; 0.003162 µM): 0.0055 | increase in dead-cell fraction ([5]; 0.01 µM): 0.0539 | increase in dead-cell fraction ([5]; 0.03162 µM): 0.56 | increase in dead-cell fraction ([5]; 0.1 µM): 0.662 | increase in dead-cell fraction ([5]; 0.3162 µM): 0.668 | increase in dead-cell fraction ([5]; 1 µM): 0.598 | increase in dead-cell fraction ([6]; 0.001 µM): -0.0158 | increase in dead-cell fraction ([6]; 0.003162 µM): 0.0194 | increase in dead-cell fraction ([6]; 0.01 µM): 0.0202 | increase in dead-cell fraction ([6]; 0.03162 µM): 0.0086 | increase in dead-cell fraction ([6]; 0.1 µM): -0.01 | increase in dead-cell fraction ([6]; 0.3162 µM): 0.0057 | increase in dead-cell fraction ([6]; 1 µM): 0.0164 | increase in dead-cell fraction ([6]; 3.162 µM): 0.0124 | increase in dead-cell fraction ([6]; 10 µM): 0.0129 | increase in dead-cell fraction ([7]; 0.0001 µM): -0.0047 | increase in dead-cell fraction ([7]; 0.0003162 µM): -0.0081 | increase in dead-cell fraction ([7]; 0.001 µM): 0.0016 | increase in dead-cell fraction ([7]; 0.003162 µM): 0.019 | increase in dead-cell fraction ([7]; 0.01 µM): 0.0061 | increase in dead-cell fraction ([7]; 0.03162 µM): 0.113 | increase in dead-cell fraction ([7]; 0.1 µM): 0.421 | increase in dead-cell fraction ([7]; 0.3162 µM): 0.568 | increase in dead-cell fraction ([7]; 1 µM): 0.624 | increase in dead-cell fraction ([8]; 0.0001 µM): -0.0206 | increase in dead-cell fraction ([8]; 0.0003162 µM): 0.0043 | increase in dead-cell fraction ([8]; 0.001 µM): 0.0532 | increase in dead-cell fraction ([8]; 0.003162 µM): -0.0091 | increase in dead-cell fraction ([8]; 0.01 µM): 0.0053 | increase in dead-cell fraction ([8]; 0.03162 µM): -0.0105 | increase in dead-cell fraction ([8]; 0.1 µM): 0.0075 | increase in dead-cell fraction ([8]; 0.3162 µM): 0.15 | increase in dead-cell fraction ([8]; 1 µM): 0.612 | GR value ([9]; 0.0003162 µM): 0.999 GR | GR value ([9]; 0.001 µM): 1.05 GR | GR value ([9]; 0.003162 µM): 1.04 GR | GR value ([9]; 0.01 µM): 0.985 GR | GR value ([9]; 0.03162 µM): 1.05 GR | GR value ([9]; 0.1 µM): 1.09 GR | GR value ([9]; 0.3162 µM): 1.02 GR | GR value ([9]; 1 µM): 1.09 GR | GR value ([9]; 3.162 µM): 0.993 GR | GR value ([10]; 0.0001 µM): 0.932 GR | GR value ([10]; 0.0003162 µM): 1.02 GR | GR value ([10]; 0.001 µM): 0.99 GR | GR value ([10]; 0.003162 µM): 1.04 GR | GR value ([10]; 0.01 µM): 0.976 GR | GR value ([10]; 0.03162 µM): 0.879 GR | GR value ([10]; 0.1 µM): -0.437 GR | GR value ([10]; 0.3162 µM): -0.852 GR | GR value ([11]; 0.0001 µM): 0.932 GR | GR value ([11]; 0.0003162 µM): 1.51 GR | GR value ([11]; 0.001 µM): 0.963 GR | GR value ([11]; 0.003162 µM): 0.885 GR | GR value ([11]; 0.01 µM): 0.645 GR | GR value ([11]; 0.03162 µM): 0.0807 GR | GR value ([11]; 0.1 µM): -0.731 GR | GR value ([11]; 0.3162 µM): -0.852 GR | GR value ([11]; 1 µM): -0.8 GR | GR value ([12]; 0.0001 µM): 0.966 GR | GR value ([12]; 0.0003162 µM): 0.963 GR | GR value ([12]; 0.001 µM): 0.368 GR | GR value ([12]; 0.003162 µM): 1 GR | GR value ([12]; 0.01 µM): 0.995 GR | GR value ([12]; 0.03162 µM): 0.961 GR | GR value ([12]; 0.1 µM): 0.805 GR | GR value ([12]; 0.3162 µM): -0.16 GR | GR value ([12]; 1 µM): -0.885 GR
